The source of these data is PMC11864979, “First-in-class ultralong-target-residence-time p38α inhibitors as a mitosis-targeted therapy for colorectal cancer” (Nature Cancer, 2025).

Like-named read-outs stand apart in the source and are kept apart here.

Test in all cases: selectivity profiling in a panel of 340 wild-type kinases (Reaction Biology Europe)
Holding throughout (assay type): binding

For experiment [1], the target named is T1, 340 wild-type kinases (Homo sapiens, UniProt O15530).
T1 construct: purchased Reaction Biology Europe
T1 sequence (O15530 1-556): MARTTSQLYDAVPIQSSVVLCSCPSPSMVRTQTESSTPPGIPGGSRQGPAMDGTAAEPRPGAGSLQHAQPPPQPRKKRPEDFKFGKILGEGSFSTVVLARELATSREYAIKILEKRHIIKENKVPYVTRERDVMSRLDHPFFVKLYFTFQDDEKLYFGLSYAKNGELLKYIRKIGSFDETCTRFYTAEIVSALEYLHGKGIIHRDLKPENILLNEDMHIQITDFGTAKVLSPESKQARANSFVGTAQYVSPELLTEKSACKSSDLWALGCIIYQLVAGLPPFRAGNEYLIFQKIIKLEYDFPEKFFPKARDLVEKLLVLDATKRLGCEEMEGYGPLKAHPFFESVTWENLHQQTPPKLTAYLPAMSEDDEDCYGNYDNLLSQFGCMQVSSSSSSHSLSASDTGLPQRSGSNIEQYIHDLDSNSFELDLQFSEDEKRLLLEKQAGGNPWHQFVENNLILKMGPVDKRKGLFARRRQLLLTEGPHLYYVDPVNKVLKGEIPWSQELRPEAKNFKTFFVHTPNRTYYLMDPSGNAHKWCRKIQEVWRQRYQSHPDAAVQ

Experiment [2] has as its target T2, 340 wild-type kinases (Homo sapiens, UniProt P04629).
T2 construct: purchased Reaction Biology Europe

The target of experiment [3] is T3, 340 wild-type kinases (Homo sapiens, UniProt P23443).
T3 construct: purchased Reaction Biology Europe
T3 sequence (P23443 whole entry): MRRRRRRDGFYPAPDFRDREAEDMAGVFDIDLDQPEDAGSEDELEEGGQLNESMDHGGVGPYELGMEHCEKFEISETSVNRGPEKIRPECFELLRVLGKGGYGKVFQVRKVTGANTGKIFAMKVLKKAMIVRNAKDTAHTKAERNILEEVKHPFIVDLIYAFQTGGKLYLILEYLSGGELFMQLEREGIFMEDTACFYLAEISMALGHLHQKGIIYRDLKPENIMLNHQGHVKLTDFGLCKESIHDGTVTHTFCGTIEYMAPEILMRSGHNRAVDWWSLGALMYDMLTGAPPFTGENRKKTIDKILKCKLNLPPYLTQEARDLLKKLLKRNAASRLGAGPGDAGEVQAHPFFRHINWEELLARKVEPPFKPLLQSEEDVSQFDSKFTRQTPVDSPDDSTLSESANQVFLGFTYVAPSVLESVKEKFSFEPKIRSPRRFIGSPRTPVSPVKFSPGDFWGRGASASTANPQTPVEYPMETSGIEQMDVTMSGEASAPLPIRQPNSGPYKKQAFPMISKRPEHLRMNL

Experiment [4] concerns the target T4, 340 wild-type kinases (Homo sapiens, UniProt P36897).
T4 construct: purchased Reaction Biology Europe
T4 sequence (P36897 34-503): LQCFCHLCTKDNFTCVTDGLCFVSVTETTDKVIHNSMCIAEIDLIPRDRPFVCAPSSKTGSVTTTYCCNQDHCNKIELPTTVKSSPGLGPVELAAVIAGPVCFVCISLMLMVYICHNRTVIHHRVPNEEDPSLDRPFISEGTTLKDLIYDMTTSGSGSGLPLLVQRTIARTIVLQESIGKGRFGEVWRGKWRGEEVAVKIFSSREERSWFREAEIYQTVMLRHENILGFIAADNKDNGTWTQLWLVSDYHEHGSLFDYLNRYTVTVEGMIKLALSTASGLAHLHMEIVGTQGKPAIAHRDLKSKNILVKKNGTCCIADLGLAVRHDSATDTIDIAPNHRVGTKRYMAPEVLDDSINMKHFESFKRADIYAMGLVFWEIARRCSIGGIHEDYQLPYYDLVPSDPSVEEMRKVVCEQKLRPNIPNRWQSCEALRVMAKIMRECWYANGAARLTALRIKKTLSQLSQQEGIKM

Experiment [5] addresses T5, 340 wild-type kinases (Homo sapiens, UniProt Q9UL54).
T5 construct: purchased Reaction Biology Europe
T5 sequence (Q9UL54 1-1235): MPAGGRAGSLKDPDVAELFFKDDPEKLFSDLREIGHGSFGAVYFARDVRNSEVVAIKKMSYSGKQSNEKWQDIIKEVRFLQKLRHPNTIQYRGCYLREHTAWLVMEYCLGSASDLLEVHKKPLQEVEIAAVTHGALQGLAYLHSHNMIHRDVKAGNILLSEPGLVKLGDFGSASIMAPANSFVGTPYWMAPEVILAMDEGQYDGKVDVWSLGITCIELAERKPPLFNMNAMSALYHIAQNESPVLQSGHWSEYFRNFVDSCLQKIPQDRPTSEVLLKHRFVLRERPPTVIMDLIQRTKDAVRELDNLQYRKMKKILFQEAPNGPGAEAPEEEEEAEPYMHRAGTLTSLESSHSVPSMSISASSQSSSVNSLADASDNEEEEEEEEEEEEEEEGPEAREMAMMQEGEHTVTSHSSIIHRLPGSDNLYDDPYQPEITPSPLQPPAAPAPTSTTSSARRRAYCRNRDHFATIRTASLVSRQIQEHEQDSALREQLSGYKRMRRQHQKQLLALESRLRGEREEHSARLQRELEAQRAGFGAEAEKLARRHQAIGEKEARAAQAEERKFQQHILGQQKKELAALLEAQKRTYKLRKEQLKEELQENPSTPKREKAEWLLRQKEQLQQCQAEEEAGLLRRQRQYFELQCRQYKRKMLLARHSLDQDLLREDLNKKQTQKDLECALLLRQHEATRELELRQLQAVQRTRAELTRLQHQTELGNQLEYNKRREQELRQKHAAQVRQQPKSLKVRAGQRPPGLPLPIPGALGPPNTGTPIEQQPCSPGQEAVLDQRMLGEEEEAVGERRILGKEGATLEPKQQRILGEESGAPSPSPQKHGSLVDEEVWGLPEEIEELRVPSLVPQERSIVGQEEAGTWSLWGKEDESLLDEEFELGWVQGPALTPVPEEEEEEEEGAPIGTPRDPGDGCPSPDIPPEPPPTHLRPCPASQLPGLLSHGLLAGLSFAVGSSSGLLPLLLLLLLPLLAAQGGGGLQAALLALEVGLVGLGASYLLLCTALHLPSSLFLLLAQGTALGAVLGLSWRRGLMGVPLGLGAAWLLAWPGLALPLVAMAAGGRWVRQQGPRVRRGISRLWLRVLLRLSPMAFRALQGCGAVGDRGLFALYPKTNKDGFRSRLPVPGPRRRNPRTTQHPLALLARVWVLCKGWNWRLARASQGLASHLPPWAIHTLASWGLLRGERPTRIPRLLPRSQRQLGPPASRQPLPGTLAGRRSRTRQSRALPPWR

In experiment [6] the target is T6, 340 wild-type kinases (Homo sapiens, UniProt Q9UQM7).
T6 construct: purchased Reaction Biology Europe
T6 sequence (Q9UQM7 whole entry): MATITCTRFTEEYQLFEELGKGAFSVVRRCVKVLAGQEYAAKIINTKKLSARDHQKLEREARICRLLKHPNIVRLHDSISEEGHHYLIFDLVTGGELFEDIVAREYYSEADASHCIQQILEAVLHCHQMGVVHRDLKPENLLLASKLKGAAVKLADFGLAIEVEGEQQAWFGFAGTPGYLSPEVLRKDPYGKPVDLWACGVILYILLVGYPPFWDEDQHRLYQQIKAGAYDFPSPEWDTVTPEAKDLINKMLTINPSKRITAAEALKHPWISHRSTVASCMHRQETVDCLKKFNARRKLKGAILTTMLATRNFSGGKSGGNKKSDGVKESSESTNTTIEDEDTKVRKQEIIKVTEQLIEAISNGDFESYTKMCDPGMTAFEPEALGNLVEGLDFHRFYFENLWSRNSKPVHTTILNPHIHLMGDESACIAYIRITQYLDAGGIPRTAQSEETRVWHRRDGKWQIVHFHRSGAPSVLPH

T2 sequence (P04629 33-796): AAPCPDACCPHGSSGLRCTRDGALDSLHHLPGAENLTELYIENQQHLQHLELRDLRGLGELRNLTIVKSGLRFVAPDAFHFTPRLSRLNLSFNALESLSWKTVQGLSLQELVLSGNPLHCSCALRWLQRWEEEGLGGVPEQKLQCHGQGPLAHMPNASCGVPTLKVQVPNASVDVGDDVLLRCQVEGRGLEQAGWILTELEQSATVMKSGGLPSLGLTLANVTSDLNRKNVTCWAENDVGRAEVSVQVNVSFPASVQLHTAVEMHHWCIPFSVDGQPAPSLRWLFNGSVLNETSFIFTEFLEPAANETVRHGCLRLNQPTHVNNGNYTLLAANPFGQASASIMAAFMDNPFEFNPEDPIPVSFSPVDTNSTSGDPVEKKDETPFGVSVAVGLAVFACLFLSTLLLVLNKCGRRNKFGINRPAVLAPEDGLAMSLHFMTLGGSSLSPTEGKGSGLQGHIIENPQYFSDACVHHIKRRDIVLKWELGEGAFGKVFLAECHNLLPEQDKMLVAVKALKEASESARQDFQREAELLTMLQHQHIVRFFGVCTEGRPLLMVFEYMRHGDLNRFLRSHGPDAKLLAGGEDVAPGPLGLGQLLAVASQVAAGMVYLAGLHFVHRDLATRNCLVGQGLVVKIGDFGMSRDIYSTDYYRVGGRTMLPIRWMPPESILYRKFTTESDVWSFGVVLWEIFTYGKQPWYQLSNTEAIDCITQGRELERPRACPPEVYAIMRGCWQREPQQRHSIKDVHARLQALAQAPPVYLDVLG

As for `CNC(=O)c1ccc2c(c1)C(=O)c1ccc(Nc3ccc(F)c(NC(=O)C4CC4)c3)cc1CC2` [Compound 2015], the remaining activity at 0.2 µM on 340 wild-type kinases [1] (0.2 µM 2015, read-out: PDK1 residual activity) came out at 107%; on 340 wild-type kinases [1] (PDK1, 0.2 µM, read-out: residual activity), 107%; on 340 wild-type kinases [2] (0.2 µM 2015, read-out: TRKA residual activity), 109%; on 340 wild-type kinases [2] (TRKA, 0.2 µM, read-out: residual activity), 109%; on 340 wild-type kinases [3] (0.2 µM 2015, read-out: S6K residual activity), 94.9%; at 340 wild-type kinases [3] (S6K, 0.2 µM, read-out: residual activity), 94.9%. The remaining activity at 0.2 µM at 340 wild-type kinases [4] (0.2 µM 2015, read-out: TGFBR1 residual activity) was 84.1%; on 340 wild-type kinases [4] (TGFBR1, 0.2 µM, read-out: residual activity) it was 84.1%; on 340 wild-type kinases [5] (0.2 µM 2015, read-out: TAOK2 residual activity), 102%; at 340 wild-type kinases [5] (TAOK2, 0.2 µM, read-out: residual activity), 102%; at 340 wild-type kinases [6] (0.2 µM 2015, read-out: CAMK2A residual activity) it was 102%. Also, the remaining activity at 1 µM at 340 wild-type kinases [1] (1 µM 2015, read-out: PDK1 residual activity) turned out to be 93.7%; on 340 wild-type kinases [1] (PDK1, 1 µM, read-out: residual activity), 93.7%; at 340 wild-type kinases [2] (1 µM 2015, read-out: TRKA residual activity), 96.5%; on 340 wild-type kinases [2] (TRKA, 1 µM, read-out: residual activity), 96.5%; at 340 wild-type kinases [3] (1 µM 2015, read-out: S6K residual activity), 95.1%; on 340 wild-type kinases [3] (S6K, 1 µM, read-out: residual activity), 95.1%. The remaining activity at 1 µM on 340 wild-type kinases [4] (1 µM 2015, read-out: TGFBR1 residual activity) was 90.9%; at 340 wild-type kinases [4] (TGFBR1, 1 µM, read-out: residual activity), 90.9%; at 340 wild-type kinases [5] (1 µM 2015, read-out: TAOK2 residual activity), 103%; on 340 wild-type kinases [5] (TAOK2, 1 µM, read-out: residual activity), 103%; on 340 wild-type kinases [6] (1 µM 2015, read-out: CAMK2A residual activity), 96.4%; at 340 wild-type kinases [6] (CAMK2A, 1 µM, read-out: residual activity) it was 96.4%.
